Results reported in patent publication US20240206484A1, “METHOD OF DEVELOPMENT OF SELECTIVE PROBIOTIC GROWTH PROMOTORS AND SELECTIVE PATHOGEN GROWTH INHIBITORS FROM KIMCHI FERMENTATION” (Hannip Inc., priority 2022, published 2024).

Legend:
L. plantarum = assay: Impact of lactic acid on the effect of BKE-X1 or BKE-X2 on growth, colonies counted; type: cell-based, Lactobacillus plantarum; settings: lactic acid to reduce pH to 3 or less; 48 hours at 30° C.; vs control
Description: (§1) To MRS culture medium (1 mL) in a culture tube (15 mL), saline (9 mL), BKE-X1 or BKE-X2 (500 mg), and kimchi bacteria culture solution (select one of L. mesenteroides and L. plantarum) (0.5 mL) were added. The mixture was vortex stirred and cultured for 48 hours at 30° C. To MRS culture medium (1 mL) in another culture tube (15 mL), saline (9 mL), BKE-X1 or BKE-X2 (500 mg), kimchi bacteria culture solution (select one of L. mesenteroides and L. plantarum) (0.5 mL), and lactic acid (to reduce pH to 3 or less) were added. The mixture was vortex stirred and cultured for 48 hours at 30° C. To MRS culture medium (1 mL) in yet another culture tube (15 mL), saline (9 mL), kimchi bacteria culture solution (select one of L. mesenteroides and L. plantarum) (0.5 mL), and lactic acid (to reduce pH to 3 or less) were added. The mixture was vortex stirred and cultured for 48 hours at 30° C. As the control, to MRS culture medium (1 mL) in yet another culture tube (15 mL), saline (9 mL) and kimchi bacteria culture solution (select one of L. mesenteroides and L. plantarum) (0.5 mL) were added. The mixture was vortex stirred and cultured for 48 hours at 30° C. An aliquot (0.5 mL) was collected from each culture medium and serially diluted to 16,000× using saline solution. […] The colonies were counted and photographed, then compared side by side.

L. mesenteroides = assay: as above; type: cell-based, Leuconostoc mesenteroides; settings: lactic acid to reduce pH to 3 or less; 48 hours at 30° C.; vs control
Description: as §1

CC(O)C(=O)O (centres unmarked) [lactic acid]
growth of L. plantarum, lactic acid alone (L. plantarum): negligibly promoting | growth of L. mesenteroides, lactic acid alone (L. mesenteroides): negligibly inhibit
